SMILES strings stand for the structures.

The text below walks through data of patent US9815854B2, “3-(3H-imidazo[4,5-B]pyridin-2-yl)-1H-pyrazolo[3,4-C]pyridine and therapeutic uses thereof” (Samumed, LLC, priority 2014, dated 2017).

The subject of test [1] is primary human fibroblasts derived from IPF patients (LL29 cells). The experiment in a line: Inhibition of the fibrotic process in TGF-β1-treated primary human fibroblasts from IPF patients (αSMA staining). The test is classed as cell-based. As to conditions: Fibroblast, 96 h, TGF-β1 20 ng/mL, 4 days, read-out: Inhibition of fibrosis EC50. A digest of the protocol: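 IPF-derived LL29 lung fibroblasts, 1,500 per well in F12 with 1% FBS, treated with compound (10 μM to […], 0.1% DMSO) and TGF-β1 20 ng/mL for 4 days at 37 °C. αSMA-positive live cells imaged and normalised to TGF-β1 controls; EC50 by nonlinear regression over triplicate wells.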

The test system of test [2] is Wnt activity (Sp5-Luc reporter, TCF/LEF binding sites) in SW480 colon carcinoma cells. The experiment in a line: Sp5-Luc Wnt reporter gene screening assay in SW480 colon carcinoma cells. The test is classed as cell-based, human. As to conditions: Homo sapiens. A digest of the protocol:
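SW480 cells stably transduced with a lentiviral luciferase reporter driven by a Sp5 promoter with eight TCF/LEF sites were plated at 10,000/well in 10% FCS medium. Luminescence was normalised to DMSO and IC50 derived by four-parameter fit.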
On the technique in general: Reporter assays use an easily measured gene product as a stand-in for the process of interest.

As usually defined, the EC50 is the midpoint of the concentration-response curve. One may read the IC50 as the point on the concentration scale where inhibition reaches its midpoint. On to `c1ccc(CNCc2cncc(-c3cc4c(-c5nc6c(-c7ccsc7)ccnc6[nH]5)n[nH]c4cn3)c2)cc1` [Compound 283, N-benzyl-1-(5-(3-(7-(thiophen-3-yl)-3H-imidazo[4,5-b]pyridin-2-yl)-1H-pyrazolopyridin-5-yl)pyridin-3-yl) methenamine], for which the EC50 in test [1] was above 10 µM. The IC50 in test [2] is 0.0747 µM.

As for `CC(C)Nc1cncc(-c2cc3c(-c4nc5c(-c6ccoc6)ccnc5[nH]4)n[nH]c3cn2)c1` [Compound 298, 5-(3-(7-(Furan-3-yl)-3H-imidazo[4,5-b]pyridin-2-yl)-1H-pyrazolo[3,4-c]pyridin-5-yl)-N-isopropylpyridin-3-amine], the EC50 in test [1] was 0.472 µM. This compound showed a half-inhibitory concentration (IC50) in test [2] of 0.0468 µM.

Consider `CCCC(=O)Nc1cncc(-c2cc3c(-c4nc5c(-c6ccoc6)ccnc5[nH]4)n[nH]c3cn2)c1` [Compound 303, N-(5-(3-(7-(Furan-3-yl)-3H-imidazo[4,5-b]pyridin-2-yl)-1H-pyrazolo[3,4-c]pyridin-5-yl)pyridin-3-yl)butyramide], for which the concentration for a half-maximal effect (EC50) in test [1] was 0.02 µM. Also, in test [2], the IC50 was 0.0788 µM.

Consider `CCCCC(=O)Nc1cncc(-c2cc3c(-c4nc5c(-c6ccoc6)ccnc5[nH]4)n[nH]c3cn2)c1` [Compound 304, N-(5-(3-(7-(Furan-3-yl)-3H-imidazo[4,5-b]pyridin-2-yl)-1H-pyrazolo [3,4c]pyridin-5-yl)pyridin-3-yl)pentanamide], for which the half-maximal effective concentration (EC50) in test [1] is 3.65 µM. In test [2], this compound displayed an IC50 of 0.0607 µM.

With `c1cc(-c2ccoc2)c2nc(-c3n[nH]c4cnc(-c5cncc(CNCC6CCCC6)c5)cc34)[nH]c2n1` [Compound 310, 1-Cyclopentyl-N-((5-(3-(7-(furan-3-yl)-3H-imidazo[4,5-b]pyridin-2-yl)-1H-pyrazolo[3,4-c]pyridin-5-yl)pyridin-3-yl)methyl)methanamine], the concentration giving a half-maximal response (EC50) in test [1] worked out at 0.641 µM. The same compound displayed an IC50 in test [2] of 0.243 µM.

In the case of `CCC(=O)Nc1cncc(-c2cc3c(-c4nc5c(-c6cccs6)ccnc5[nH]4)n[nH]c3cn2)c1` [Compound 313], the EC50 in test [1] was 0.039 µM. For the same compound, the concentration for half-maximal inhibition (IC50) in test [2] is 0.0717 µM.

On to `CN(C)c1cncc(-c2cc3c(-c4nc5c(-c6cccs6)ccnc5[nH]4)n[nH]c3cn2)c1` [Compound 319], for which the EC50 in test [1] came to 0.075 µM. Moreover, in test [2], the IC50 came out at 0.125 µM.

As for `CC(C)(C)C(=O)Nc1cncc(-c2cc3c(-c4nc5c(-c6cccs6)ccnc5[nH]4)n[nH]c3cn2)c1` [Compound 320], in test [1], the 50% effective concentration (EC50) stood at 0.025 µM. The same compound gave an IC50 in test [2] of 0.0426 µM.

On to `CC(C)Nc1cncc(-c2cc3c(-c4nc5c(-c6cccs6)ccnc5[nH]4)n[nH]c3cn2)c1` [Compound 324, N-Isopropyl-5-(3-(7-(thiophen-2-yl)-3H-imidazo[4,5-b]pyridin-2-yl)-1H-pyrazolo[3,4-c]pyridin-5-yl)pyridin-3-amine], for which the EC50 in test [1] was at least 9.99 µM. Besides, the 50% inhibitory concentration (IC50) in test [2] was determined as 0.0585 µM.

For the compound `CN(C)Cc1cncc(-c2cc3c(-c4nc5c(-c6cccs6)ccnc5[nH]4)n[nH]c3cn2)c1` [Compound 325, N,N-Dimethyl-1-(5-(3-(7-(thiophen-2-yl)-3H-imidazo[4,5-b]pyridin-2-yl)-1H-pyrazolo[3,4-c]pyridin-5-yl)pyridin-3-yl)methanamine], the half-maximal effective concentration (EC50) in test [1] came out at 0.254 µM. The compound also displayed an IC50 in test [2] of 0.137 µM.

For the compound `O=C(Nc1cncc(-c2cc3c(-c4nc5c(-c6cccs6)ccnc5[nH]4)n[nH]c3cn2)c1)C1CC1` [Compound 331], the concentration for a half-maximal effect (EC50) in test [1] stood at 0.319 µM. This compound also came in with an IC50 in test [2] of 0.0831 µM.

In the case of `FC1(F)CCN(Cc2cncc(-c3cc4c(-c5nc6c(-c7cccs7)ccnc6[nH]5)n[nH]c4cn3)c2)C1` [Compound 337], in test [1], the half-maximal effective concentration (EC50) came out at 0.114 µM. This compound also came in with a half-maximal inhibitory concentration (IC50) in test [2] of 0.0248 µM.

With `CC(C)CC(=O)Nc1cncc(-c2cc3c(-c4nc5c(-c6ccc(F)s6)ccnc5[nH]4)n[nH]c3cn2)c1` [Compound 340, N -(5-(3-(7-(5-Fluorothiophen-2-yl)-3H-imidazo[4,5-b]pyridin-2-yl)-1H-pyrazolo[3,4-c]pyridin-5-yl)pyridin-3-yl)-3-methylbutanamide], the 50% effective concentration (EC50) in test [1] came to 0.767 µM. For the same compound, the half-inhibitory concentration (IC50) in test [2] was determined as 0.027 µM.

Regarding `Cc1ccc(-c2ccnc3[nH]c(-c4n[nH]c5cnc(-c6cncc(N)c6)cc45)nc23)s1` [Compound 367, 5-(3-(7-(5-Methylthiophen-2-yl)-3H-imidazo[4,5-b]pyridin-2-yl)-1H-pyrazolo[3,4-c]pyridin-5-yl)pyridin-3-amine], the EC50 in test [1] was at most 0.009 µM. The same compound gave a half-inhibitory concentration (IC50) in test [2] of 0.0226 µM.

As for `Cc1ccc(-c2ccnc3[nH]c(-c4n[nH]c5cnc(-c6cncc(NC(=O)C(C)(C)C)c6)cc45)nc23)s1` [Compound 372, N-(5-(3-(7-(5-Methylthiophen-2-yl)-3H-imidazo[4,5-b]pyridin-1)-1H-pyrazolo[3,4-c]pyridin-5-yl)pyridin-3-yl)pivalamide], the concentration for a half-maximal effect (EC50) in test [1] turned out to be 0.22 µM. In test [2], this compound yielded a concentration for half-maximal inhibition (IC50) of 0.0248 µM.

On to `Cc1ccc(-c2ccnc3[nH]c(-c4n[nH]c5cnc(-c6cncc(NC(=O)C(C)C)c6)cc45)nc23)s1` [Compound 373, N-(5-(3-(7-(5-Methylthiophen-2-yl)-3H-imidazo[4,5-b]pyridin-2-yl)-1H-pyrazolo[3,4-c]pyridin-5-yl)pyridin-3-yl)isobutyramide], for which, in test [1], the EC50 was at most 0.009 µM. The IC50 in test [2] was found to be 0.0164 µM.

With `Cc1ccc(-c2ccnc3[nH]c(-c4n[nH]c5cnc(-c6cncc(NC(C)C)c6)cc45)nc23)s1` [Compound 376, N-Isopropyl-5-(3-(7-(5-methylthiophen-2-yl)-3H-imidazo[4,5-b]pyridin-2-yl)-1H-pyrazolo[3,4-c]pyridin-5-yl)pyridin-3-amine], in test [1], the 50% effective concentration (EC50) was at least 9.99 µM. Besides, in test [2], the IC50 stood at 0.0106 µM.

`Cc1ccc(-c2ccnc3[nH]c(-c4n[nH]c5cnc(-c6cncc(CN7CCCCC7)c6)cc45)nc23)s1` [Compound 379, 3-(7-(5-Methylthiophen-2-yl)-3H-imidazo[4,5-b]pyridin-2-yl)-5-(5-(piperidin-1-ylmethyl)pyridin-3-yl)-1H-pyrazolo[3,4-c]pyridine]: the concentration giving a half-maximal response (EC50) in test [1] amounted to 0.299 µM. This compound registered an IC50 in test [2] of 0.18 µM.

In the case of `Cc1ccc(-c2ccnc3[nH]c(-c4n[nH]c5cnc(-c6cncc(NC(=O)C7CCCC7)c6)cc45)nc23)s1` [Compound 385], in test [1], the concentration for a half-maximal effect (EC50) is 0.106 µM. The same compound showed a concentration for half-maximal inhibition (IC50) in test [2] of 0.0844 µM.

Consider `CC(=O)c1ccc(-c2ccnc3[nH]c(-c4n[nH]c5cnc(-c6cncc(NC(=O)CC(C)(C)C)c6)cc45)nc23)s1` [Compound 406, N-(5-(3-(7-(5-Acetylthiophen-2-yl)-3H-imidazo[4,5-b]pyridin-2-yl)-1H-pyrazolo[3,4-c]pyridin-5-yl)pyridin-3-yl)-3,3-dimethylbutanamide], for which the EC50 in test [1] is at least 9.99 µM. The compound further had an IC50 in test [2] above 10 µM.

As for `CC(=O)c1ccc(-c2ccnc3[nH]c(-c4n[nH]c5cnc(-c6cncc(NC(=O)C7CCCCC7)c6)cc45)nc23)s1` [Compound 412, N-(5-(3-(7-(5-Acetylthiophen-2-yl)-3H-imidazo[4,5-b]pyridin-2-yl)-1H-pyrazolo[3,4-c]pyridin-5-yl)pyridin-3-yl)cyclohexanecarboxamide], the EC50 in test [1] was at least 9.99 µM. The compound also registered an IC50 in test [2] above 10 µM.

On to `CS(=O)(=O)NCc1cc(F)cc(-c2ccnc3[nH]c(-c4n[nH]c5cnc(-c6cncc(NC(=O)c7ccccc7)c6)cc45)nc23)c1` [Compound 427, N-(5-(3-(7-(3-Fluoro-5-(methylsulfonamidomethyl)phenyl)-3H-imidazo[4,5-b]pyridin-2-yl)-1H-pyrazolo[3,4-c]pyridin-5-yl)pyridin-3-yl)benzamide], for which the EC50 in test [1] is at least 9.99 µM. Further, the concentration for half-maximal inhibition (IC50) in test [2] was above 10 µM.

Consider `CCCC(=O)Nc1cncc(-c2cc3c(-c4nc5c(-c6cc(F)cc(CNS(C)(=O)=O)c6)ccnc5[nH]4)n[nH]c3cn2)c1` [Compound 433, N-(5-(3-(7-(3-Fluoro-5-(methylsulfonamidomethyl)phenyl)-3H-imidazo[4,5-b]pyridin-2-yl)-1H-pyrazolo[3,4-c]pyridin-5-yl)pyridin-3-yl)butyramide], for which, in test [1], the EC50 is at least 9.99 µM. In test [2], this compound came in with a half-maximal inhibitory concentration (IC50) above 10 µM.

With `CS(=O)(=O)NCc1cc(F)cc(-c2ccnc3[nH]c(-c4n[nH]c5cnc(-c6cncc(CNCc7ccccc7)c6)cc45)nc23)c1` [Compound 439, N-(3-(2-(5-(5-((Benzylamino)methyl)pyridin-3-yl)-1H-pyrazolo[3,4-c]pyridin-3-yl)-3H-imidazo[4,5-b]pyridin-7-yl)-5-fluorobenzyl)methanesulfonamide], the EC50 in test [1] is at most 0.009 µM. This compound gave a half-inhibitory concentration (IC50) in test [2] above 10 µM.

For the compound `CS(=O)(=O)NCc1cc(F)cc(-c2ccnc3[nH]c(-c4n[nH]c5cnc(-c6cncnc6)cc45)nc23)c1` [Compound 442, N-(3-Fluoro-5-(2-(5-(pyrimidin-5-yl)-1H-pyrazolo[3,4-c]pyridin-3-yl)-3H-imidazo[4,5-b]pyridin-7-yl)benzyl)methanesulfonamide], the concentration giving a half-maximal response (EC50) in test [1] is at least 9.99 µM. The compound also had an IC50 in test [2] above 10 µM.

For `CC(C)Nc1cncc(-c2cc3c(-c4nc5c(-c6cc(F)cc(NCCN(C)C)c6)ccnc5[nH]4)n[nH]c3cn2)c1` [Compound 454, N^1-(3-Fluoro-5-(2-(5-(5-(isopropylamino)pyridin-3-yl)-1H-pyrazolo[3,4-c]pyridin-3-yl)-3H-imidazo[4,5-b]pyridin-7-yl)phenyl)—N^2,N^2-dimethylethane-1,2-diamine], the EC50 in test [1] was 0.746 µM. The IC50 in test [2] was determined as 0.0947 µM.

As for `CN(C)CCNc1cc(F)cc(-c2ccnc3[nH]c(-c4n[nH]c5cnc(-c6cncc(CNCC7CCCC7)c6)cc45)nc23)c1` [Compound 466, N^1-(3-(2-(5-(5-(((Cyclopentylmethyl)amino)methyl)pyridin-3-yl)-1H-pyrazolo[3,4-c]pyridin-3-yl)-3H-imidazo[4,5-b]pyridin-7-yl)-5-fluorophenyl)—N2,N2-dimethylethane-1,2-diamine], the 50% effective concentration (EC50) in test [1] is at most 0.009 µM. The IC50 in test [2] was determined as 1.74 µM.
